Test results: patent US20220226329A1, “METHOD TO INDUCE HEMATOPOIETIC CHIMERISM” (The General Hospital Corporation, priority 2019, published 2022)
“And” between values parts separate entries of the source, which are not always exact repeats. Equal entries are not always repeated. “Also recorded” adds a separate entry of the source. Blank lines part the entries; values can stand above or below the compound they belong to.

Legend:
[1] = tested on: Bcl-2, Bcl-xL, Bcl-w, Mcl-1; details: literature statements; cited from earlier work
[2] = tested on: hematopoietic stem cells (HSCs); test: Drug-only study: HSC deletion in bone marrow (flow cytometry) and total CFU assay; format: in vivo, cynomolgus macaques; details: S63845 5 mg/kg x 5 alone
From the text: In certain embodiments, the deletion of CD34^+ cells of the bone marrow can be determined using flow cytometry and comparing the amount of CD34^+ cells of the bone marrow to pre-treatment levels. The reduction in total colony forming units can be measured by a CFU assay and comparing the CFUs to pre-treatment levels.

[3] = Blood counts (CBC: white blood cells, neutrophils, platelets, HCT) after conditioning and transplantation; format: in vivo, Cynomolgus monkeys
Description: (§1) Combined kidney and bone marrow transplantation (CKBMT): All recipients were conditioned with total body irradiation (TBI) (1.5 Gy on day −5, relative to the day of CKBMT), local thymic irradiation (TI) (7 Gy on day −1) and equine-derived anti-thymocyte globulin (hATG) (Atgam; Pharmacia and Upjohn, Kalamazoo, Mich.; 50 mg/kg/day i.v. on days −2, −1 and 0). Following DBMT, the recipients were also treated with anti-CD154 mAb (5c8; 20 mg/kg i.v. on days 0 and 2, 7, and 12 post-DBMT). Cyclosporine A (CyA, Novartis, Basel, Switzerland) was administered intramuscular (IM) on days 0-27 post DBMT, after which no immunosuppression was administered (FIG. 6).
(§2) Statistical analyses: Statistical analysis was performed with GraphPad PRISM 7.01 (GraphPad Software, Inc, San Diego, Calif.). We used two way ANOVA to compare chimerism, CBC, and T cell subsets. Mantel-Cox log-rank test was used to analyze survival of different groups and. P values lower than 0.05 have been considered statistically significant.

[4] = tested on: BAX (the BCL-2-associated X protein); test: Intrinsic apoptosis: expression of BAX and other apoptotic markers in peripheral lymphocytes (flow cytometry, CyTOF); format: in vivo, Cynomolgus monkeys; details: 10 mg/kg x 11 (day -4 to +6), TBI 1.5 Gy regimen, n=3
Description: To examine intrinsic apoptosis induced by ABT-199, expression of BAX (the BCL-2-associated X protein), which is pro-apoptotic protein that plays an important role in the mitochondria-dependent apoptotic pathway was assessed.
Flow cytometric and CyTOF analyses: Peripheral blood mononuclear cells (PBMCs) were labeled with a combination of the following mAbs: CD3 (SP34-2), CD4 (L200), CD8 (SK1), CD21 (B-ly4), CD27 (M-T271), CD28 (CD28.2), CD95 (DX2), and IgM (G20-127) (BD Pharmingen, San Jose, Calif.), CD20 (2H7) (Biolegend, Inc., San Diego, Calif.) and FOXP3 (236A/E7) (eBioscience, Inc., San Diego, Calif.). The fluorescence of the stained samples was analyzed using FACSverse (BD Biosciences, San Jose, Calif.) and Accuri flow cytometers (BD PharMingen), and FlowJo software (Tree Star, Inc., Ashland, Oreg.). A CyTOF panel for cynomolgus monkeys was designed. The CyTOF panel consisted of antibodies against various NHP leukocyte markers including CD3, CD4, CD8, Foxp3, CD127, CTLA4, Ki-67, CD95, CD20, CD21, CD27, CD38, CD123, CD31, CD11c, CD25, HLA-DR, CD45RA, CD159 (NKG2a), Granzyme B, Caspase 3/7/9, Bax and Cytochrom C.

Cynomolgus monkeys [5] = test: Hematopoietic chimerism after combined kidney and bone marrow transplantation (CKBMT), flow cytometry of peripheral blood; format: in vivo; details: recipients with chimerism/total
Description: (§3) To evaluate whether Bcl-2 inhibitor (ABT-199) can promote engraftment of hematopoietic stem cells with reduced myelosuppressive therapy, monkeys were treated with various modified regimens with ABT-199 and compared with standard regimen without ABT-199. The basic conditioning regimen consisted of low dose total body irradiation (TBI), thymic irradiation (TI, 7 Gy) and peri-transplant ATG administration. After combined kidney and bone marrow transplantation, the recipients were treated with anti-CD154 mAb for 2 weeks and CyA for 4 weeks, after which no immunosuppression was given (FIG. 1). In Groups C-E, 10 mg/kg of ABT-199 was administered for 11 days (day −4 to day 6). Animals were divided into five groups according to the treatments (Table 1).
(§4) Animals and pair selections: Cynomolgus monkeys, including donor animals, weighing 4-8 kg were used for this study (Charles River Primates, Wilmington, Mass.). Donors and recipients were paired on the basis of ABO blood type compatibility and major histocompatibility complex (MHC) mismatching. MHC characterization was performed as previously described (O'Connor, S. L., et al. 2007, Immunogenetics 59, 449-462.; Pendley, C. J., et al. 2008, Immunogenetics 60, 339-351.). All surgical procedures and postoperative care of animals were performed in accordance with National Institute of Health guidelines for the care and use of primates and were approved by the Massachusetts General Hospital Institutional Animal Care and Use Committee (IACUC).
Following DBMT, the recipients were also treated with anti-CD154 mAb (5c8; 20 mg/kg i.v. on days 0 and 2, 7, and 12 post-DBMT). Cyclosporine A (CyA, Novartis, Basel, Switzerland) was administered intramuscular (IM) on days 0-27 post DBMT, after which no immunosuppression was administered (FIG. 6).
Bone marrow transplantation: Donor bone marrow cells (DBMC) were obtained by multiple aspirations from the iliac crests, humerus head, and vertebral bones under general anesthesia. If the donor animal was sacrificed, DBMC were harvested from the vertebral bones after euthanasia. DBMC (1.0-3.0×10^8 mononuclear cells/kg) were infused intravenously.
Detection of hematopoietic chimerism: A monkey was selected that was either BB7.6 (HLA-B7B40) positive or a H38 (HLA-BW6) positive monkey as a donor and a monkey negative to these antibodies was selected as a recipient. In all experiments, the percentage of cells that stained with each mAb was determined from one color fluorescence histogram and compared with those obtained from donor and pretreatment frozen recipient cells, which were used as positive and negative controls. The percentage of cells considered positive was determined with a cutoff chosen as the fluorescence level at the beginning of the positive peak for the positive control stain and by subtracting the percentage of cells stained with an isotype control. By using forward and 90° light scatter (FSC and SSC, respectively) dot plots, lymphocyte (FSC- and SSC-low), granulocyte (SSC-high), and monocyte (FSC-high but SSC-low) populations were gated, and chimerism was determined separately for each population. Nonviable cells were excluded by propidium iodide (Thermo Fischer Scientific, Grand Island, N.Y.) staining.

Cynomolgus monkeys [6] = test: Renal allograft survival / rejection after CKBMT without maintenance immunosuppression; format: in vivo; details: per animal
Description: as §3, with “After combined kidney and bone marrow transplantation, the recipients were treated with anti-CD154 mAb for 2 weeks and CyA for 4 weeks, after which no immunosuppression was given (FIG. 1).” left out
as §4
as §1, with “Following DBMT, the recipients were also treated with anti-CD154 mAb (5c8; 20 mg/kg i.v. on days 0 and 2, 7, and 12 post-DBMT).” left out
Kidney transplantation (KTx): Monkeys underwent heterotopic KTx and nephrectomy as previously described (Cosimi, A. B., et al. 1990, Surgery 108, 406-413.).
as §2

[7] = Example 2 Group D: ABT-199 +, TBI 0 Gy, TI 7 Gy
[8] = Example 2 Group E: ABT-199 +, TBI 1.5 Gy, TI 0 Gy
[9] = Example 3 Group E: venetoclax +, TBI 1.5 Gy, TI 7 Gy, CoB Belatacept
[10] = Example 3 Group F: venetoclax +, TBI 1.5 Gy, TI 7 Gy, no CoB
[11] = Example 3 Group G: venetoclax +, TBI 1.5 Gy, TI 0 Gy, CoB aCD154
[12] = Example 3 Group H: venetoclax +, TBI 0 Gy, TI 7 Gy, CoB aCD154

Compound: CN(C)CC[C@H](CSc1ccccc1)Nc1ccc(S(=O)(=O)NC(=O)c2ccc(N3CCN(Cc4ccccc4-c4ccc(Cl)cc4)CC3)cc2)cc1[N+](=O)[O-] [ABT-737]
Selectivity among Bcl-2 family proteins [1]: inhibits Bcl-2, Bcl-xL and Bcl-w but not Mcl-1

Compound: Cc1c(-c2c(-c3ccc(F)o3)sc3ncnc(O[C@H](Cc4ccccc4OCc4ccnn4CC(F)(F)F)C(=O)O)c23)ccc(OCCN2CCN(C)CC2)c1Cl [S63845]
HSCs in BM, % of the pretreatment level [2]: 51% | total colony forming units (CFU), % of pretreatment [2]: 45%

Platelet counts (thrombocytopenia) ([3]; 10 mg/kg x 11, after treatment): prolonged thrombocytopenia
Compound: CC1(C)CCC(c2ccc(Cl)cc2)=C(CN2CCN(c3ccc(C(=O)NS(=O)(=O)c4ccc(N[C@H](CCN5CCOCC5)CSc5ccccc5)c(S(=O)(=O)C(F)(F)F)c4)cc3)CC2)C1 [navitoclax]
Bax expression in T cells, B cells and NK cells compared to pre Rx levels [4]: only observed with venetoclax but not with navitoclax

Compound: CC1(C)CCC(CN2CCN(c3ccc(C(=O)NS(=O)(=O)c4ccc(NCC5CCOCC5)c([N+](=O)[O-])c4)c(Oc4cnc5[nH]ccc5c4)c3)CC2)=C(c2ccc(Cl)cc2)C1 [venetoclax]
Chimerism (Cynomolgus monkeys [5]; Example 2 Group C: ABT-199 10 mg/kg x 11 days (day -4 to 6), TBI 1.5 Gy, TI 7 Gy): 3/3 | Chimerism (Cynomolgus monkeys [5]; [7]): 0/2 | Chimerism (Cynomolgus monkeys [5]; [8]): 2/2 | Chimerism (Cynomolgus monkeys [5]; Example 3 Group D: venetoclax 10 mg/kg x 11 IM, TBI 1.5 Gy, TI 7 Gy, CoB aCD154): 5/5 | Chimerism (Cynomolgus monkeys [5]; [9]): 3/3 | Chimerism (Cynomolgus monkeys [5]; [10]): 0/2 | Chimerism (Cynomolgus monkeys [5]; [11]): 3/3 | Chimerism (Cynomolgus monkeys [5]; [12]): 0/2 | Pancytopenia / neutropenia ([3]; Example 2 Group C: ABT-199 +, TBI 1.5 Gy, TI 7 Gy, in contrast to Group A (TBI 3 Gy, no ABT-199)): without development of severe pancytopenia; also recorded: without neutropenia | White blood cell counts, platelet counts, HCT (leukopenia, thrombocytopenia, anemia) ([3]; Example 3 Group D: venetoclax, TBI 1.5 Gy): no leukopenia, thrombocytopenia, or anemia; also recorded: stable | Graft survival (Cynomolgus monkeys [6]; Example 2 Group C: ABT-199 +, TBI 1.5 Gy, TI 7 Gy): > 316 days and > 637 days and > 301 days and > 313 days and > 361 days and > 646 days | Graft survival (Cynomolgus monkeys [6]; [7]): 142 days and 100 days | Graft survival (Cynomolgus monkeys [6]; [8]): 163 days and 100 days and 97 days | Renal Allograft Survival (days) (Cynomolgus monkeys [6]; Example 3 Group D: venetoclax +, TBI 1.5 Gy, TI 7 Gy, CoB aCD154): exceeding 1000 days | Renal Allograft Survival (days) (Cynomolgus monkeys [6]; Example 3 Group D: venetoclax +, TBI 1.5 Gy, TI 7 Gy, CoB aCD154, listed as Venetoclax): > 1071 days and > 735 days and > 313 days | Renal Allograft Survival (days) (Cynomolgus monkeys [6]; [9]): > 574 days and > 308 days | Renal Allograft Survival (days) (Cynomolgus monkeys [6]; Example 3 Group E: venetoclax +, TBI 1.5 Gy, TI 7 Gy, CoB Belatacept, listed as Venetoclax): > 574 days and > 308 days and 237 days | Renal Allograft Survival (days) (Cynomolgus monkeys [6]; [10]): 74 days and 127 days | Renal Allograft Survival (days) (Cynomolgus monkeys [6]; [11]): 97 days and 100 days and 163 days | Renal Allograft Survival (days) (Cynomolgus monkeys [6]; [12]): 120 days and 142 days
